Laboratory results published in patent US20250059180A1 (DONG WHA PHARM. CO., LTD., priority 2022, published 2025).
Where two headings read alike, the source gives them in different places.

Test system: Pfeiffer cells, lymphoma cells having EZH2 mutation (A677G)
Test: Proliferation inhibition of cells of hematologic malignancies (CCK-8, 11 days)
Format: cell-based
Conditions: 11 days culture, read-out: Cell proliferation inhibitory effect (IC50)
In short: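 Pfeiffer lymphoma cells (EZH2 A677G) in RPMI1640 with 10% FBS were seeded at 10,000 cells/well and exposed to test material for 11 days, with compound replaced every 3–4 days. Viability was read by CCK-8 absorbance at 450 nm, and IC50 was derived by non-linear regression curve fitting.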

IC50 | IC50 (Homo sapiens, Pfeiffer, 264 h) | SMILES
≥ 100 nM |  | CSc1cc(C)[nH]c(=O)c1CNC(=O)c1cc(-c2ccc(N3CCOCC3)nc2)c2c(c1C)OC(C)(C1CCN(CC(F)F)CC1)O2 (single isomer, unassigned) [Compound 65, 2-(1-(2,2-difluoroethyl)piperidin-4-yl)-2,4-dimethyl-N-((6-methyl-4-(methylthio)-2-oxo-1,2-dihydropyridin-3-yl)methyl)-7-(6-morpholinopyridin-3-yl)benzo[d][1,3]dioxole-5-carboxamide]
 | ≤ 10 nM | CCN(C)c1ccc(-c2cc(C(=O)NCc3c(SC)cc(C)[nH]c3=O)c(C)c3c2OC(C)(C2CCN(CC(F)(F)F)CC2)O3)cn1 (single isomer, unassigned) [Compound 86, 7-(6-(ethyl(methyl)amino)pyridin-3-yl)-2,4-dimethyl-N-((6-methyl-4-(methylthio)-2-oxo-1,2-dihydropyridin-3-yl)methyl)-2-(1-(2,2,2-trifluoroethyl)piperidin-4-yl)benzo[d][1,3]dioxole-5-carboxamide]
 | ≤ 10 nM | CSc1cc(C)[nH]c(=O)c1CNC(=O)c1cc(-c2ccc(N3C[C@@H](C)O[C@@H](C)C3)nc2)c2c(c1C)OC(C)(C1CCN(C[C@H](C)O)CC1)O2 (stereo partly drawn) [Compound 40, 7-(6-((2S,6R)-2,6-dimethylmorpholino)pyridin-3-yl)-2-(1-((S)-2-hydroxypropyl)piperidin-4-yl)-2,4-dimethyl-N-((6-methyl-4-(methylthio)-2-oxo-1,2-dihydropyridin-3-yl)methyl)benzo[d][1,3]dioxole-5-carboxamide]
 | ≤ 10 nM | COCCN(C)[C@H]1CC[C@H](C2(C)Oc3c(-c4ccc(N5CCC(F)(F)CC5)nc4)cc(C(=O)NCc4c(SC)cc(C)[nH]c4=O)c(C)c3O2)CC1 (stereo partly drawn) [Compound 27, 7-(6-(4,4-difluoropiperidin-1-yl)pyridin-3-yl)-2-(trans-4-((2-methoxyethyl)(methyl)amino)cyclohexyl)-2,4-dimethyl-N-((6-methyl-4-(methylthio)-2-oxo-1,2-dihydropyridin-3-yl)methyl)benzo[d][1,3]dioxole-5-carboxamide]
≥ 100 nM |  | CSc1cc(C)[nH]c(=O)c1CNC(=O)c1cc(-c2ccc(N3C[C@@H](C)O[C@@H](C)C3)nc2)c2c(c1C)OC(C)([C@H]1CC[C@H](N(C)CC(F)(F)F)CC1)O2 (single isomer, unassigned) [Compound 108]
 | ≤ 10 nM | CCN(C)c1ccc(-c2cc(C(=O)NCc3c(SC)cc(C)[nH]c3=O)c(C)c3c2OC(C)(C2CCN(CC(F)F)CC2)O3)cn1 (single isomer, unassigned) [Compound 88, 2-(1-(2,2-difluoroethyl)piperidin-4-yl)-7-(6-(ethyl(methyl)amino)pyridin-3-yl)-2,4-dimethyl-N-((6-methyl-4-(methylthio)-2-oxo-1,2-dihydropyridin-3-yl)methyl)benzo[d][1,3]dioxole-5-carboxamide]
≤ 10 nM |  | CCN1CCC(C2(C)Oc3c(-c4ccc(N5C[C@@H](C)O[C@@H](C)C5)nc4)cc(C(=O)NCc4c(SC)cc(C)[nH]c4=O)c(C)c3O2)CC1 (single isomer, unassigned) [Compound 49]
 | 10 to 100 nM | COc1ccc(F)cc1-c1cc(C(=O)NCc2c(SC)cc(C)[nH]c2=O)c(C)c2c1OC(C)([C@H]1CC[C@H](N(C)C)CC1)O2 (stereo partly drawn) [Compound 12, 2-(trans-4-(dimethylamino)cyclohexyl)-7-(5-fluoro-2-methoxyphenyl)-2,4-dimethyl-N-((6-methyl-4-(methylthio)-2-oxo-1,2-dihydropyridin-3-yl)methyl)benzo[d][1,3]dioxole-5-carboxamide]
 | ≤ 10 nM | CSc1cc(C)[nH]c(=O)c1CNC(=O)c1cc(-c2ccc(N3C[C@@H](C)O[C@@H](C)C3)nc2)c2c(c1C)OC(C)([C@H]1CC[C@H](N(C)C(C)C)CC1)O2 (stereo partly drawn) [Compound 110, 7-(6-((2S,6R)-2,6-dimethylmorpholino)pyridin-3-yl)-2-(trans-4-(isopropyl(methyl)amino)cyclohexyl)-2,4-dimethyl-N-((6-methyl-4-(methylthio)-2-oxo-1,2-dihydropyridin-3-yl)methyl)benzo[d][1,3]dioxole-5-carboxamide]
